# According to ChEMBL document CHEMBL1201862, “PubChem BioAssay data set” (2004):
# Values joined by “and” are separate entries in the source; they are usually repeats but may differ in a detail not shown here. Equal entries are not always repeated.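 Compound exposure: 48 hours, 5 concentrations, 96-well plates. Here, GI50 denotes the concentration required for 50% inhibition of growth.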 Active and inactive are the calls of the source. Cut-off read from the data, not from the text of the source: active = GI50 up to about 1.1 µM and inactive = higher.
# How the values were obtained:
# Assay in all cases: NCI anticancer screen, dose series, 48 h
# RXF 393 = system: RXF 393
# SK-OV-3 = system: SK-OV-3
# OVCAR-4 = system: OVCAR-4
# A498 = system: A498
# SNB-19 = system: SNB-19
# NCI/ADR-RES = system: NCI/ADR-RES
# MOLT-4 = system: MOLT-4
# MDA-MB-231 = system: MDA-MB-231
# MCF7 = system: MCF7
# U-251 = system: U-251
# COLO 205 = system: COLO 205
# SW-620 = system: SW-620
# MDA-MB-435 = system: MDA-MB-435
# HCT-116 = system: HCT-116
# K562 = system: K562
# HOP-62 = system: HOP-62
# MDA-N = system: MDA-N
# HCC 2998 = system: HCC 2998
# SF-268 = system: SF-268
# RPMI-8226 = system: RPMI-8226
# SF-539 = system: SF-539
# ACHN = system: ACHN
# UACC-62 = system: UACC-62
# HT-29 = system: HT-29
# A549 = system: A549
# SN12C = system: SN12C
# SK-MEL-5 = system: SK-MEL-5
# T47D = system: T47D
# NCI-H23 = system: NCI-H23
# DU-145 = system: DU-145
# SF-295 = system: SF-295
# 786-0 = system: 786-0
# UO-31 = system: UO-31
# NCI-H460 = system: NCI-H460
# OVCAR-5 = system: OVCAR-5
# SK-MEL-28 = system: SK-MEL-28
# OVCAR-8 = system: OVCAR-8
# SR = system: SR
# KM12 = system: KM12
# PC-3 = system: PC-3
# HOP-92 = system: HOP-92
# TK-10 = system: TK-10
# CAKI-1 = system: CAKI-1
# SK-MEL-2 = system: SK-MEL-2
# HCT-15 = system: HCT-15
# M14 = system: M14
# OVCAR-3 = system: OVCAR-3
# Malme-3M = system: Malme-3M
# NCI-H522 = system: NCI-H522
# UACC-257 = system: UACC-257
# CCRF-CEM = system: CCRF-CEM
# EKVX = system: EKVX
# NCI-H226 = system: NCI-H226
# SNB-75 = system: SNB-75
# IGROV-1 = system: IGROV-1
# LOX IMVI = system: LOX IMVI
# Hs-578T = system: Hs-578T
# HL-60 = system: HL-60
structure (smiles),measurement,setting,value
O=C1OCCC12CN(Cc1ccccc1)N=N2 (stereo unspecified),GI50,RXF 393,> 100 µM (inactive)
same,GI50,SK-OV-3,> 100 µM (inactive)
same,GI50,OVCAR-4,> 100 µM (inactive)
same,GI50,A498,> 100 µM (inactive)
same,GI50,SNB-19,> 100 µM (inactive)
same,GI50,NCI/ADR-RES,> 100 µM (inactive)
same,GI50,MOLT-4,> 100 µM (inactive)
same,GI50,MDA-MB-231,> 100 µM (inactive)
same,GI50,MCF7,> 100 µM (inactive)
same,GI50,U-251,> 100 µM (inactive)
same,GI50,COLO 205,> 100 µM (inactive)
same,GI50,SW-620,> 100 µM (inactive)
same,GI50,MDA-MB-435,> 100 µM (inactive)
same,GI50,HCT-116,> 100 µM (inactive)
same,GI50,K562,> 100 µM (inactive)
same,GI50,HOP-62,> 100 µM (inactive)
same,GI50,MDA-N,> 100 µM (inactive)
same,GI50,HCC 2998,> 100 µM (inactive)
same,GI50,SF-268,> 100 µM (inactive)
same,GI50,RPMI-8226,> 100 µM (inactive)
same,GI50,SF-539,> 100 µM (inactive)
same,GI50,ACHN,29.9 µM (inactive)
same,GI50,UACC-62,> 100 µM (inactive)
same,GI50,HT-29,> 100 µM (inactive)
same,GI50,A549,> 100 µM (inactive)
same,GI50,SN12C,> 100 µM (inactive)
same,GI50,SK-MEL-5,> 100 µM (inactive)
same,GI50,T47D,> 100 µM (inactive)
same,GI50,NCI-H23,> 100 µM (inactive)
same,GI50,DU-145,87.7 µM (inactive)
same,GI50,SF-295,> 100 µM (inactive)
same,GI50,786-0,> 100 µM (inactive)
same,GI50,UO-31,> 100 µM (inactive)
same,GI50,NCI-H460,> 100 µM (inactive)
same,GI50,OVCAR-5,> 100 µM (inactive)
same,GI50,SK-MEL-28,> 100 µM (inactive)
same,GI50,OVCAR-8,> 100 µM (inactive)
same,GI50,SR,13.2 µM (inactive)
same,GI50,KM12,> 100 µM (inactive)
same,GI50,PC-3,> 100 µM (inactive)
same,GI50,HOP-92,> 100 µM (inactive)
same,GI50,TK-10,> 100 µM (inactive)
same,GI50,CAKI-1,58.7 µM (inactive)
same,GI50,SK-MEL-2,> 100 µM (inactive)
same,GI50,HCT-15,> 100 µM
same,GI50,M14,> 100 µM (inactive)
same,GI50,OVCAR-3,> 100 µM (inactive)
same,GI50,Malme-3M,12.1 µM (inactive)
same,GI50,NCI-H522,49.9 µM (inactive)
CC(Nc1n[nH]c(=O)c2c1nnn2Cc1ccccc1)c1ccccc1 (stereo unspecified),GI50,UACC-257,50.6 µM (inactive) and 71 µM (inactive)
same,GI50,NCI/ADR-RES,> 100 µM (inactive) and 57.8 µM (inactive)
same,GI50,CCRF-CEM,> 100 µM (inactive)
same,GI50,MOLT-4,56.9 µM (inactive) and 37.2 µM (inactive)
same,GI50,MCF7,31.9 µM (inactive) and 29.1 µM (inactive)
same,GI50,U-251,26.1 µM (inactive) and 37.1 µM (inactive)
same,GI50,COLO 205,77.4 µM (inactive) and 96.2 µM (inactive)
same,GI50,MDA-MB-435,17.3 µM (inactive) and 22.3 µM (inactive)
same,GI50,HCT-116,24.3 µM (inactive) and 27.5 µM (inactive)
same,GI50,HCC 2998,> 100 µM (inactive)
same,GI50,RPMI-8226,72.8 µM (inactive)
same,GI50,ACHN,52.7 µM (inactive)
same,GI50,HT-29,12.2 µM (inactive)
same,GI50,A549,23.8 µM (inactive) and 36 µM (inactive)
same,GI50,SN12C,> 100 µM (inactive)
same,GI50,SK-MEL-5,18.8 µM (inactive) and 21.5 µM (inactive)
same,GI50,DU-145,> 100 µM (inactive)
same,GI50,SF-295,34.4 µM (inactive) and 17.8 µM (inactive)
same,GI50,786-0,16.5 µM (inactive)
same,GI50,OVCAR-5,> 100 µM (inactive)
same,GI50,SK-MEL-28,> 100 µM (inactive) and 55.1 µM (inactive)
same,GI50,KM12,> 100 µM (inactive)
same,GI50,EKVX,> 100 µM (inactive)
same,GI50,HOP-92,22.8 µM (inactive) and 23.9 µM (inactive)
same,GI50,CAKI-1,18.6 µM (inactive) and 34.1 µM (inactive)
same,GI50,HCT-15,> 100 µM
same,GI50,M14,> 100 µM (inactive)
same,GI50,OVCAR-3,> 100 µM (inactive) and 53.5 µM (inactive)
COc1cc(CNc2nc3cc(C(F)(F)F)ccc3nc2-c2ccccc2)cc(OC)c1OC,GI50,RXF 393,10.6 µM (inactive)
same,GI50,NCI-H226,32.3 µM (inactive)
same,GI50,UACC-257,33.6 µM (inactive)
same,GI50,SNB-75,5.79 µM (inactive)
same,GI50,SNB-19,> 100 µM (inactive)
same,GI50,NCI/ADR-RES,14.8 µM (inactive)
same,GI50,CCRF-CEM,24.9 µM (inactive)
same,GI50,MOLT-4,12.9 µM (inactive)
same,GI50,MDA-MB-231,20.6 µM (inactive)
same,GI50,MCF7,1.52 µM (inactive)
same,GI50,U-251,27 µM (inactive)
same,GI50,COLO 205,17.1 µM (inactive)
same,GI50,SW-620,39.2 µM (inactive)
same,GI50,MDA-MB-435,28.5 µM (inactive)
same,GI50,HCT-116,19.1 µM (inactive)
same,GI50,K562,22.5 µM (inactive)
same,GI50,HOP-62,43.5 µM (inactive)
same,GI50,MDA-N,30.6 µM (inactive)
same,GI50,HCC 2998,19.8 µM (inactive)
same,GI50,SF-268,40.6 µM (inactive)
same,GI50,RPMI-8226,25.6 µM (inactive)
same,GI50,SF-539,43.1 µM (inactive)
same,GI50,ACHN,16.7 µM (inactive)
same,GI50,UACC-62,8.53 µM (inactive)
same,GI50,HT-29,23.7 µM (inactive)
same,GI50,A549,37.3 µM (inactive)
same,GI50,IGROV-1,25.9 µM (inactive)
same,GI50,LOX IMVI,28.6 µM (inactive)
same,GI50,SN12C,24.3 µM (inactive)
same,GI50,SK-MEL-5,25.2 µM (inactive)
same,GI50,T47D,1.65 µM (inactive)
same,GI50,NCI-H23,21 µM (inactive)
same,GI50,DU-145,89.7 µM (inactive)
same,GI50,Hs-578T,37.4 µM (inactive)
same,GI50,SF-295,41.8 µM (inactive)
same,GI50,786-0,30 µM (inactive)
same,GI50,UO-31,31.6 µM (inactive)
same,GI50,NCI-H460,25.4 µM (inactive)
same,GI50,SK-MEL-28,49.7 µM (inactive)
same,GI50,OVCAR-8,33.2 µM (inactive)
same,GI50,SR,15.9 µM (inactive)
same,GI50,KM12,14.8 µM (inactive)
same,GI50,EKVX,10.9 µM (inactive)
same,GI50,TK-10,> 100 µM (inactive)
same,GI50,CAKI-1,39.4 µM (inactive)
same,GI50,HCT-15,17.3 µM
same,GI50,M14,30.5 µM (inactive)
same,GI50,HL-60,18.5 µM (inactive)
same,GI50,OVCAR-3,24.6 µM (inactive)
same,GI50,Malme-3M,21.3 µM (inactive)
same,GI50,NCI-H522,22.3 µM (inactive)
CC(C)(/N=N/C(C)(C)C1=NCCN1)C1=NCCN1,GI50,SK-OV-3,> 100 µM (inactive)
same,GI50,A549,> 100 µM (inactive)
same,GI50,NCI-H23,> 100 µM (inactive)
same,GI50,HOP-92,> 100 µM (inactive)
same,GI50,TK-10,> 100 µM (inactive)
same,GI50,CAKI-1,> 100 µM (inactive)
Cc1cc(N)c2ccccc2[n+]1CCCCCCCCCCNc1cc(C)[n+](CCCCCCCCCC[n+]2c(C)cc(N)c3ccccc32)c2ccccc12,GI50,CCRF-CEM,0.52 µM (active)
same,GI50,MOLT-4,1.01 µM (active)
same,GI50,MCF7,0.682 µM (active)
same,GI50,U-251,0.406 µM (active)
same,GI50,COLO 205,0.375 µM (active)
same,GI50,SW-620,2.23 µM (inactive)
same,GI50,MDA-MB-435,0.427 µM (active)
same,GI50,HCT-116,1.35 µM (inactive)
same,GI50,K562,0.4 µM (active)
same,GI50,HOP-62,0.929 µM (active)
same,GI50,MDA-N,0.333 µM (active)
same,GI50,HCC 2998,0.759 µM (active)
same,GI50,RPMI-8226,0.352 µM (active)
same,GI50,ACHN,0.964 µM (active)
same,GI50,UACC-62,0.608 µM (active)
same,GI50,HT-29,11.6 µM (inactive)
same,GI50,A549,0.692 µM (active)
same,GI50,IGROV-1,1.35 µM (inactive)
same,GI50,LOX IMVI,1.79 µM (inactive)
same,GI50,SN12C,0.293 µM (active)
same,GI50,SK-MEL-5,0.439 µM (active)
same,GI50,NCI-H23,0.516 µM (active)
same,GI50,DU-145,1.75 µM (inactive)
same,GI50,SF-295,1.32 µM (inactive)
same,GI50,786-0,0.547 µM (active)
same,GI50,UO-31,1.86 µM (inactive)
same,GI50,OVCAR-5,1.49 µM (inactive)
same,GI50,SK-MEL-28,0.528 µM (active)
same,GI50,OVCAR-8,1.61 µM (inactive)
same,GI50,KM12,0.618 µM (active)
same,GI50,EKVX,14.6 µM (inactive)
same,GI50,PC-3,1.02 µM (active)
same,GI50,CAKI-1,34.6 µM (inactive)
same,GI50,SK-MEL-2,1.41 µM (inactive)
same,GI50,HCT-15,1.75 µM
same,GI50,M14,0.746 µM (active)
same,GI50,OVCAR-3,1.56 µM (inactive)
